Results published in patent publication US12622966B2, “Compound for photothermal cancer therapy, composition including the same, and method for photothermal cancer therapy” (PUKYONG NATIONAL UNIVERSITY INDUSTRY-UNIVERSITY COOPERATION …, priority 2022, dated 2026).

How the values were obtained:
[1] = UV-Vis absorption in DMSO; type: physicochemical; settings: for λabs, absorption wavelength: in DMSO
Protocol: FIG. 2 illustrates UV-Vis absorption (solid line) and fluorescence emission (dotted line) spectra of NI1 (60 μM) and NI2 (40 μM) in DMSO according to an embodiment of the present disclosure;
In the UV-Vis spectrum of FIG. 2 and Table 1, an absorption peak of NI1 has a tendency of red-shift absorption (λabs=728 nm, in DMSO) compared to NI2 (λabs=690 nm, in DMSO) in an organic solvent. […] The molar absorption coefficient (8) of NI1 is relatively lower than that of NI2, which generates a conjugate in a free pair of electrons of an —NH group due to the introduction of a phenyl group in NI2 and may reduce an ICT effect from an electron donor group to an electron acceptor group compared to NI1.

[2] = Photothermal conversion efficiency; type: physicochemical; design: η (THF), photothermal conversion efficiency: concentration or dose not given beside the values; settings: for η (DMSO), photothermal conversion efficiency: in DMSO; for η (THF), photothermal conversion efficiency: in THF; for η (NPs), photothermal conversion efficiency: nanoparticles (nanoaggregates)
Protocol: FIGS. 3A, 3B, and 3C relate to the thermal reaction of NI2 NPs according to 691 nm laser irradiation at 1 W/cm^2 and 1.5 W/cm^2 according to an embodiment of the present disclosure. FIG. 3A illustrates temperature rise measured in NI2 NPs at various concentrations (0 for distilled water, 25, 50, 75, and 100 μM) after irradiation for 150 seconds (N=4); FIG. 3B illustrates photothermal convergence efficiency (PCE) of NI2 NPs (100 μM) in 4 ON/OFF cycles of laser irradiation (ON/OFF time=150 s/450 s; duty cycle=25%); and FIG. 3C illustrates infrared thermal images of NI2 NPs (100 μM) captured at various irradiation times (scale bar=5 mm);
FIGS. 3A, 3B and 3C show quantitative analysis results of the photothermal characteristics and photothermal conversion efficiency of NI2 nanoparticles according to various concentrations and laser irradiation times in a 691 nm laser (1 W/cm^2 and 1.5 W/cm^2) irradiation of NI2 nanoparticles. When the concentration of the NI2 solution (in D.W.) was changed from 0 to 100 μM, it could be seen that the temperature increased in proportion to the concentration when the temperature change of the NI2 solution was measured after absorption for 150 seconds. That is, in FIG. 3A, it may be seen that a temperature increase (ΔT) changes linearly after irradiation for 150 seconds (R^2=0.98 to 0.99), and the maximum temperature of the NI2 NP was 42.8±2.8° C. and 54.4±0.5° C. for 1 W/cm^2 and 1.5 W/cm^2 at 100 μM, respectively. […] In FIG. 3C, it may be seen in the captured sequential thermal images showing the “spatio-temporal distribution” in the temperature area.

Compound	ε, molar absorption coefficient [1]	λabs, absorption wavelength [1] [nm]	η (DMSO), photothermal conversion efficiency [2] [%]	η (THF), photothermal conversion efficiency [2] [%]	η (NPs), photothermal conversion efficiency [2] [%]
N#CC(C#N)=C1C(=Nc2ccc(Nc3ccccc3)cc2)C(=C(C#N)C#N)c2ccccc21 [NI2]	15.6 ×10^3	690	52.1	32.4	92.5
CNc1ccc(N=C2C(=C(C#N)C#N)c3ccccc3C2=C(C#N)C#N)cc1 [NI1]	12.0 ×10^3	728	50.3	31.4	58.3
